Drawing on US10829499B2, “Tetracyclic heterocycle compounds useful as HIV integrase inhibitors” (MERCK SHARP & DOHME CORP., priority 2016, dated 2020), this text covers IC50 for 35 compounds.

Read-outs that look alike come from different tables or passages of the source.

This test has as its system HIV-1 (NL4-3 strain). Kind of test: Assay for Inhibition of HIV Replication (kinetic assay, MT4-gag-GFP reporter cell line; VIKING). It counts as cell-based. The protocol:
This assay is a kinetic assay that employs a reporter cell line (MT4-gag-GFP) to quantify the number of new cells infected in each round of replication.
MT4-GFP cells (250,000 cells/ml) were bulk-infected with HIV-1 (NL4-3 strain) at low multiplicity of infection (MOI) in RPMI cell culture medium+10% FBS for 24 hours. Cells were then washed once in RPMI cell culture medium+10% FBS and resuspended in RPMI cell culture medium+0% or 10% or 100% normal human serum (NHS). Test compounds were serial-diluted in DMSO on an ECHO® liquid handler. The infected MT4-GFP cells were added to a 384-well poly-D-lysine coated black plate with clear bottom in which the diluted test compounds were placed. The cells were seeded at 8,000 cells per well and the final DMSO concentration was 0.4%. The infected cells (Green GFP cells) were quantified at both 24 and 48 hours post incubation using Acumen eX3. Viral reproductive ratio (R0) was determined using the number of infected cells at 48 hours divided by the number of infected cells at 24 hours. Percent viral growth inhibition was calculated by [1-(R-Rtripledrug),/(RDMSO-Rtripledrug)]*100. Compound potency IP or IC50 was determined by a 4-parameter dose response curve analysis. In vitro potency in the cell-based assay in the absence of normal human serum (NHS) and the presence of 100% NHS.

The mark [1] stands for this setting: MT4-GFP cells infected with HIV-1 NL4-3, 0% normal human serum (NHS), read-out: VIKING IP50 (nM) with 0% NHS.
The mark [2] stands for this setting: MT4-GFP cells infected with HIV-1 NL4-3, 100% normal human serum (NHS), read-out: VIKING IP50 (nM) with 100% NHS.
Where [3] appears, read: Human immunodeficiency virus 1, NL43, MT4-GFP cells infected with HIV-1 NL4-3, 0% normal human serum (NHS), read-out: VIKING IP50 (nM) with 0% NHS.
[4] abbreviates: Human immunodeficiency virus 1, NL43, MT4-GFP cells infected with HIV-1 NL4-3, 100% normal human serum (NHS), read-out: VIKING IP50 (nM) with 100% NHS.

For `CCNC1CC2C3OCCCN3C(=O)c3c(O)c(=O)c(C(=O)NCc4cccc(F)c4F)c1n32` (stereo not shown) [Compound 191], the IC50 runs as follows: under setting [1], 12.6 nM; under setting [2], 63.6 nM.
As to `COc1cc(F)cc(F)c1CNC(=O)c1c2n3c(c(O)c1=O)C(=O)N1CCCOC1C3CC2` (racemic) [Compound 59], the IC50 runs as follows: under setting [3], 3.08 nM; under setting [4], 8400 nM.
For the compound `COC1CC2C3N(C)CCN3C(=O)c3c(O)c(=O)c(C(=O)NCc4ccc(F)cc4F)c1n32` (stereo not shown) [Compound 126], the IC50 by setting is: under setting [1], 2.42 nM; under setting [2], 211 nM.
The like results for `O=C(NCc1cccc(F)c1F)c1c2n3c(c(O)c1=O)C(=O)N1C4CCC(C4)OC1C3CC2` (stereo not shown) [Compound 166] were, in that order, 5.39 nM and 50.6 nM.
The like results for `CN1CCCN2C(=O)c3c(O)c(=O)c(C(=O)NCc4ccc(F)cc4F)c4n3C(CC4)C12` (single isomer, unassigned) [Compound 82] were, in that order, 1.17 nM and 550 nM.
Taken in the same sequence, the figures for `O=C(NCc1ccc(F)c(Cl)c1)c1c2n3c(c(O)c1=O)C(=O)N1CCOC1C3CC2` (single isomer, unassigned) [Compound 23] were 1.06 nM and 2190 nM.
Consider `O=C(NCc1cccc(Cl)c1F)c1c2n3c(c(O)c1=O)C(=O)N1CCOC1C3CC2` (single isomer, unassigned) [Compound 4], for which the IC50 is 0.439 nM under setting [1] and 93.6 nM under setting [2].
As for `C[C@H]1CN2C(=O)c3c(O)c(=O)c(C(=O)NCc4cccc(Cl)c4F)c4n3C(CC4)C2N1S(C)(=O)=O` (stereo partly shown) [Compound 118], the IC50 was 8.73 nM under setting [3] and 1280 nM under setting [2].
In the case of `O=C(NCc1ccc(F)cc1F)c1c2n3c(c(O)c1=O)C(=O)N1CCCCOC1C3CC2` (single isomer, unassigned) [Compound 70], the IC50 is, setting by setting: under setting [1], 1.12 nM; under setting [2], 3920 nM.
As for `C[C@@H]1COC2C3CCc4c(C(=O)NCc5cccc(Cl)c5F)c(=O)c(O)c(n43)C(=O)N21` (single isomer, unassigned) [Compound 37], the IC50 is 0.546 nM under setting [1] and 1690 nM under setting [2].
With `C[C@@H]1CN2C(=O)c3c(O)c(=O)c(C(=O)NCc4cccc(Cl)c4F)c4n3C(CC4)C2O1` (stereo partly shown) [Compound 38], the IC50 under setting [3] was found to be 0.543 nM and the IC50 under setting [4] is 46.4 nM.
As to `O=C(NCc1c(F)cc(F)cc1F)c1c2n3c(c(O)c1=O)C(=O)N1CCOC1C3CC2` (single isomer, unassigned) [Compound 20], the IC50 came to 0.727 nM under setting [1] and 602 nM under setting [2].
Regarding `COC1CC2C3N(C)CCN3C(=O)c3c(O)c(=O)c(C(=O)NCc4ccc(F)cc4F)c1n32` (stereo not shown) [Compound 127], the IC50 is, setting by setting: under setting [1], 1.2 nM; under setting [2], 11.7 nM.
The like results for `O=C(NCc1c(F)cc(F)cc1F)c1c2n3c(c(O)c1=O)C(=O)N1C4CCC(C4)OC1C3CC2` (stereo not shown) [Compound 169] were, in that order, 2.71 nM and 42.9 nM.
On to `COC1CC2C3OCCN3C(=O)c3c(O)c(=O)c(C(=O)NCc4ccc(F)cc4F)c1n32` (single isomer, unassigned) [Compound 78], for which the IC50 by setting is: under setting [1], 2.12 nM; under setting [2], 534 nM.
The like results for `CN1CCCN2C(=O)c3c(O)c(=O)c(C(=O)NCc4cccc(Cl)c4F)c4n3C(CC4)C12` (single isomer, unassigned) [Compound 87] were, in that order, 0.875 nM and 1000 nM.
For `C[C@H]1CCOC2C3CCc4c(C(=O)NCc5ccc(F)cc5F)c(=O)c(O)c(n43)C(=O)N21` (single isomer, unassigned) [Compound 61], the IC50 runs as follows: under setting [4], 8000 nM; under setting [1], 22.1 nM.
For `C[C@H]1CCOC2C3CCc4c(C(=O)NCc5ccc(F)cc5F)c(=O)c(O)c(n43)C(=O)N21` (single isomer, unassigned) [Compound 62], the IC50 under setting [1] stood at 0.83 nM and the IC50 under setting [2] stood at 528 nM.
`C[C@H]1CN2C(=O)c3c(O)c(=O)c(C(=O)NCc4cccc(Cl)c4F)c4n3C(CC4)C2O1` (single isomer, unassigned) [Compound 44]: the IC50 was found to be 0.879 nM under setting [1] and 378 nM under setting [2].
With `O=C(NCc1c(F)cc(F)cc1F)c1c2n3c(c(O)c1=O)C(=O)N1C4CCC(C4)OC1C3CC2` (stereo not shown) [Compound 170], the IC50 was determined as 2.59 nM under setting [1] and 5360 nM under setting [2].
Consider `O=C(NCc1ccc(F)cc1F)c1c2n3c(c(O)c1=O)C(=O)N1CCCOC1C3CC2` (single isomer, unassigned) [Compound 56], for which the IC50 came to 0.701 nM under setting [1] and 1800 nM under setting [2].
The like results for `CCNC1CC2C3OCCCN3C(=O)c3c(O)c(=O)c(C(=O)NCc4ccc(F)cc4F)c1n32` (stereo not shown) [Compound 202] were, in that order, 7.73 nM and 39.4 nM.
Taken in the same sequence, the figures for `C[C@H]1CN2C(=O)c3c(O)c(=O)c(-c4nnc(Cc5ccc(F)cc5F)s4)c4n3C(CC4)C2N1` (stereo partly shown) [Compound 131] were 2.33 nM and 36.1 nM.
The like results for `O=C(NCc1cccc(Cl)c1F)c1c2n3c(c(O)c1=O)C(=O)N1C4CCC(C4)OC1C3CC2` (stereo not shown) [Compound 154] were, in that order, 4.14 nM and 79.2 nM.
Take `CCN1C[C@H](C)N2C(=O)c3c(O)c(=O)c(C(=O)NCc4cccc(Cl)c4F)c4n3C(CC4)C12` (stereo partly shown) [Compound 111]: the IC50 under setting [3] worked out at 1.19 nM and the IC50 under setting [2] is 260 nM.
As for `O=C(NCc1cccc(Cl)c1F)c1c2n3c(c(O)c1=O)C(=O)N1CCCOC1C3CC2` (single isomer, unassigned) [Compound 49], the IC50 runs as follows: under setting [3], 0.96 nM; under setting [4], 1190 nM.
With `C[C@H]1CN2C(=O)c3c(O)c(=O)c(-c4nnc(Cc5ccc(F)cc5F)s4)c4n3C(CC4)C2N1` (stereo partly shown) [Compound 130], the IC50 stood at 3.53 nM under setting [3] and 92.8 nM under setting [2].
Regarding `C[C@@H]1COC2C3CCc4c(C(=O)NCc5ccc(F)cc5F)c(=O)c(O)c(n43)C(=O)N21` (stereo partly shown) [Compound 32], the IC50 was determined as 0.671 nM under setting [3] and 101 nM under setting [4].
On to `O=C(NCc1cccc(Cl)c1F)c1c2n3c(c(O)c1=O)C(=O)N1CCCCOC1C3CC2` (single isomer, unassigned) [Compound 66], for which the IC50 turned out to be 1.48 nM under setting [1] and 834 nM under setting [2].
Turning to `O=C(NCc1ccc(F)cc1)c1c2n3c(c(O)c1=O)C(=O)N1CCCOC1C3CC2` (single isomer, unassigned) [Compound 51], the IC50 by setting is: under setting [3], 1.25 nM; under setting [2], 32.6 nM.
With `C[C@H]1CNC2C3CCc4c(C(=O)NCc5cccc(Cl)c5F)c(=O)c(O)c(n43)C(=O)N21` (stereo partly shown) [Compound 90], the IC50 by setting is: under setting [1], 0.397 nM; under setting [2], 24.6 nM.
Take `C[C@H]1CN2C(=O)c3c(O)c(=O)c(C(=O)NCc4cccc(Cl)c4F)c4n3C(CC4)C2N1` (stereo partly shown) [Compound 93]: the IC50 was determined as 49 nM under setting [4] and 1.14 nM under setting [1].
In the case of `CC(=O)N1C2C3CCc4c(C(=O)NCc5cccc(Cl)c5F)c(=O)c(O)c(n43)C(=O)N2C[C@@H]1C` (stereo partly shown) [Compound 122], the IC50 by setting is: under setting [3], 2.17 nM; under setting [4], 30.1 nM.
Turning to `COC1CC2C3OCCN3C(=O)c3c(O)c(=O)c(C(=O)NCc4ccc(F)cc4F)c1n32` (single isomer, unassigned) [Compound 79], the IC50 under setting [1] turned out to be 1.79 nM and the IC50 under setting [2] worked out at 135 nM.
Regarding `O=C(NCc1cccc(Cl)c1F)c1c2n3c(c(O)c1=O)C(=O)N1CCCCOC1C3CC2` (single isomer, unassigned) [Compound 67], the IC50 runs as follows: under setting [1], 0.577 nM; under setting [2], 1470 nM.
